{"source": "patent US20110293727A1", "about": "“CHIMERIC THERAPEUTICS, COMPOSITIONS, AND METHODS FOR USING SAME” (priority 2008, published 2011)", "test_system": "inhibitory dsRNA", "test": "K9 protein-RNA complex by electrophoresis of labeled inhibitory dsRNA and K9 protein", "assay_type": "binding", "settings": "4 M Urea, 10 mM Hepes, pH 8.15; 1.5% agarose gel; FIG. 5", "description": "Inhibitory dsRNA 3′-labeled with Dy547 is purchased from Dharmacon (Lafayette, Colo.). Labeled and unlabeled inhibitory dsRNA solutions are diluted to 4 μM in 4 M Urea, 10 mM Hepes, pH 8.15. […] Labeled and unlabeled protein solutions are diluted to 3 μM in 4M Urea.\nLabeled and unlabeled RNA and protein are used in separate binding reactions. Samples are run on a 1.5% TAE-agarose gel for 35 minutes at 110 volts.\nA typhoon phosphoimager(GE) is used to visualize the cy5-only, DY547-only and cy5/DY547 labeled RNA protein complexes. Filters are employed to separately detect Dy547 (FIG. 5A) and cy5 (FIG. 5B) fluorescent labels. To image all fluorescence on the gel, cy5-filtered and dy547-filtered images are overlayed (FIG. 5C).", "data": [{"substance": "K9: modified HBV core protein (contains E77C), 9-lysine C-terminal tail, His tag, SEQ ID NO: 10 [Mutant K9]", "values": [{"measurement": "complex formation of K9 protein with inhibitory dsRNA (shifted band)", "result": "form a complex in solution"}]}]}
